Laboratory results published in US20150174186A1, “PHARMACEUTICAL COMPOSITION FOR PREVENTING OR TREATING STAT3-MEDIATED DISEASE, COMPRISING SALVIA PLEBEIA R. BR. EXTRACT OR FRACTION THEREOF AS ACTIVE INGREDIENT” (Korea Research Institute of Bioscience and Biotechnology, priority 2012, published 2015).

Assays:
[1] = system: osteoclasts; experiment: Differentiation and formation of osteoclasts from bone marrow macrophages (TRAP assay); type: cell-based, ICR mouse; conditions: BMM cells
From the text: Osteoclasts are known to directly affect bone resorption, and the differentiation and formation of osteoclasts play a very important role in osteoporosis. In order to examine the effect of the ethanol extract of Salvia plebeia R. Br. on the differentiation and formation of osteoclasts, the differentiation from bone marrow cells isolated from the femur of an ICR mouse into osteoclasts was observed.
Bone marrow cells were separated from the femur of a three- to six-week old ICR mouse, and the separated cells were treated with M-CSF (30 ng/ml) for 3 days, thereby inducing their differentiation into bone marrow macrophage (BMM). Then, the BMM was treated with M-CSF (30 ng/ml) and RANKL (100 ng/ml) for 4 days, thereby inducing them to be differentiated into osteoclasts. […] Then, the differentiation and formation of osteoclasts were confirmed by TRAP assay.

[2] = system: mouse model with osteoporosis induced by ovariectomy; experiment: Mouse model with osteoporosis induced by ovariectomy (DEXA, micro CT); type: in vivo, C57BL/6 mouse; conditions: compared to PBS after ovariectomy, oral, five weeks
From the text: Test groups were divided into a sham group (only surgery without ovary removal) and a group treated with ovariectomy (OVX). In the OVX group, the ovaries of an eight-week old female C57BL/6 mouse were removed by surgery and the mouse was bred for 6 weeks to induce osteoporosis. […] The sample was used after dissolving in PBS. Furthermore, the sham group was orally administered with PBS for five weeks.
Upon termination of five weeks' oral administration, the Bone Mineral Density (BMD) and Bone Mineral Content (BMC) of the mouse were measured using an osteoporosis analyzing device Dual-Energy X-ray Absorptiometry (DEXA; bone mineral density analyzer), and the results are shown in FIG. 21a-21d.
Upon termination of five weeks' oral administration, the mice of each experimental group were sacrificed, and the bones adjacent to tibia were separated. The bones were then photographed to obtain their 3-dimensional structures and cross-sections via micro CT, and the microstructures and volume of the bones and trabecular thickness were measured.

`NCCCC(O)(P(=O)(O)O)P(=O)(O)O` [alendronate] was tested, and the differentiation of osteoclasts ([1]; 10 μM) was “differentiation of osteoclasts was observed”, the formation of osteoclasts ([1]; 30 and 60 μM) was “osteoclasts were not formed due to toxicity” and the “Bone Mineral Content (BMC)” value [2] was “significant increase”.
